Test results taken from publication PMC10649961, “Novel Mitochondria-Targeted Amphiphilic Aminophosphonium Salts and Lipids Nanoparticles: Synthesis, Antitumor Activity and Toxicity” (Nanomaterials, 2023).

What was measured:
[1] = test system: PC3; test: cells; conditions: Homo sapiens, PC-3, 48 h, read-out: Cytotoxic Effects (IC50), PC3, MTT assay, 48 h
[2] = test system: HuTu 80 cells; test: Cell cycle analysis, propidium iodide flow cytometry; assay type: cell-based, human; conditions: HuTu 80, IC50, 48 h, compared with the control
Procedure: The DNA content and cell-cycle distribution after compounds 4b, 5b, 6a, and 8 IC50 concentrations were estimated by flow cytometry. After washing with PBS, treated cells were suspended in 150 μL of PBS, then 0.5 mL of phosphate-citrate buffer (0.05 M, pH 4.0) was added, and the suspension was incubated at room temperature for 5 min to facilitate the extraction of low-molecular-weight DNA. Following centrifugation, the cells were resuspended in 150 μL DNA staining solution (20 μg/mL propidium iodide, 200 μg/mL […]) and incubated in the CO2 incubator (37 °C for 30 min). The distribution of the cell cycle was determined by fluorescence analysis of HuTu 80 cells stained with propidium iodide using Guava easyCyte (Guava easyCyte).

[3] = test system: HuTu 80 cells; test: Cell apoptosis assay, Annexin V/propidium iodide flow cytometry; assay type: cell-based, human; conditions: HuTu 80, 48-h incubation, IC50/2 and IC50
Procedure: HuTu 80 cells at a rate of 1 × 10^6 cells/well were seeded into six-well plates and incubated until a monolayer formed for approximately 24 h. After […] of incubation, various concentrations of compounds 4b, 5b, 6a, and 8 were added to the wells.
Cells were detached with a trypsin-versene solution (1:3), suspended in PBS, and collected at 2000 rpm for 5 min. Cells were then washed twice with ice-cold PBS, followed by resuspension in binding buffer. Next, the samples were incubated with 5 μL of Annexin V Alexa Fluor 647 (Sigma-Aldrich, St. Louis, MO, USA) and 5 μL of propidium iodide for 15 min at room temperature in the dark. Finally, the cells were analyzed by flow cytometry in the Red-R (661/15 nm)—annexin and Near IR-B (785/70 nm)—PI channels on a Guava easyCyte flow cytometer (Merck Millipore, Burlington, MA, USA) for 1 h. The experiments were repeated three times.

[4] = test system: caspase 8; test: Caspase 8 ELISA in cell lysates; assay type: cell-based, human; conditions: HuTu 80 lysates, relative to the control
Procedure: In vitro quantitative measurement of caspase-9 and caspase-8 was performed using ELISA kits (ELISA Kit for Caspase 9 and ELISA Kit for Caspase 8, Human Cloud-Clone Corp., Wuhan, China). The analysis was carried out according to the manufacturer’s instructions. Samples were standardized for total protein content (1 mg/mL). Protein concentration was determined with Coomassie-based assays using Bredford Dye Reagent (Bio-Rad, Hercules, CA, USA). The absorbance was measured using a microplate reader, EPOCH (BioTek Instruments, Inc., Winooski, VT, USA), at a wavelength of 450 ± 10 nm. Lysates of untreated HuTu 80 cells were used as controls.
To confirm that apoptosis induced by compounds 4b, 5b, 6a, and 8 proceeds along the internal (mitochondrial) pathway, studies were conducted to determine the enzymatic activity of the early apoptosis key markers—caspase 9 and caspase 8 using ELISA kits. The kits are sandwich enzyme immunoassays for in vitro quantitative measurement of Caspase 8 and Caspase 9 in cell lysates, rat tissue homogenates, and other biological fluids. Caspase 9 plays a key role in the mitochondrial signaling pathway of apoptosis induction. The activation of caspase 8 characterizes the external (receptor-dependent) pathway of apoptosis. HuTu 80 cells not treated with the tested compounds were used as a control.

Compound: CCCCCCCCCC[P+](N(CC)CC)(N(CC)CC)N(CC)CC [4d, Decyltris(diethylamino)phosphonium iodide]
- IC50 [1]: 7.3 ± 0.6 µM

Compound: CCCCCCCC[P+](c1ccccc1)(c1ccccc1)c1ccccc1 [compound 8, Octyltriphenylphosphonium iodide, reference compound]
- effect on cell cycle (in words) [2]: significant delay of cells in the G0/G1 phase
- IC50 [1]: 0.4 ± 0.03 µM
- apoptosis-inducing effect (in words) [3]: more active in the early stage of apoptosis

Compound: CCCCCC[P+](c1ccccc1)(c1ccccc1)N(CC)CC [6a, (Diethylamino)(hexyl)diphenylphosphonium iodide]
- effect on cell cycle (in words) [2]: slight change in the cell cycle
- IC50 [1]: 4 ± 0.3 µM
- apoptosis-inducing effect (in words) [3]: number of necrotic cells prevailed

Compound: CCCCCCCC[P+](c1ccccc1)(N(CC)CC)N(CC)CC [5b, Bis(diethylamino)(octyl)(phenyl)phosphonium iodide]
- concentration of caspase 8 (in words) [4]: significantly decreased
- effect on cell cycle (in words) [2]: significant delay of cells in the G0/G1 phase
- IC50 [1]: 11.4 ± 0.9 µM
- apoptosis-inducing effect (in words) [3]: dose-dependent apoptosis

Compound: CCCCCCCC[P+](N(CC)CC)(N(CC)CC)N(CC)CC [4b, Tris(diethylamino)(octyl)phosphonium iodide]
- concentration of caspase 8 (in words) [4]: significantly decreased
- effect on cell cycle (in words) [2]: significant delay of cells in the G0/G1 phase
- IC50 [1]: 11.6 ± 0.9 µM
- apoptosis-inducing effect (in words) [3]: dose-dependent apoptosis
